Assay results published in patent publication US20230399312A1, “SUBSTITUTED PYRIMIDINES AND METHODS OF USE” (THERAVANCE BIOPHARMA R&D IP, LLC, priority 2020, published 2023).
pKi: −log10 of the molar value.

How the values were obtained:
[1] = tested on: TGF-β-stimulated SMAD3 phosphorylation in BEAS-2B cells; experiment: Cellular ALK5 potency assay, inhibition of TGF-β stimulated pSMAD3 formation in BEAS-2B cells; format: cell-based; settings: Homo sapiens, pSMAD3, TGF-β 10 ng/mL, read-out: BEAS2B pIC50 (converted)
Procedure, shortened: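 Cells were seeded overnight, rinsed into HEPES/BSA-supplemented HBSS, and dosed with serially diluted compound for 1 h at 37 °C, 5% CO2. TGF-β stimulation (10 ng/mL final) followed for 30 min, then lysis and AlphaLISA pSMAD3 measurement; potency reported as pIC50.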

[2] = biological target: T1, recombinant human ALK5 (TGF-βR1) protein (Homo sapiens, UniProt P36897); experiment: Biochemical ALK5 (TGF-βR1) assay to measure pKi (LANCE Ultra ULight kinase assay); settings: apparent pKi, converted from pIC50 by Cheng-Prusoff
T1 construct: purchased Life Technologies PR9075A
T1 sequence (P36897 34-503): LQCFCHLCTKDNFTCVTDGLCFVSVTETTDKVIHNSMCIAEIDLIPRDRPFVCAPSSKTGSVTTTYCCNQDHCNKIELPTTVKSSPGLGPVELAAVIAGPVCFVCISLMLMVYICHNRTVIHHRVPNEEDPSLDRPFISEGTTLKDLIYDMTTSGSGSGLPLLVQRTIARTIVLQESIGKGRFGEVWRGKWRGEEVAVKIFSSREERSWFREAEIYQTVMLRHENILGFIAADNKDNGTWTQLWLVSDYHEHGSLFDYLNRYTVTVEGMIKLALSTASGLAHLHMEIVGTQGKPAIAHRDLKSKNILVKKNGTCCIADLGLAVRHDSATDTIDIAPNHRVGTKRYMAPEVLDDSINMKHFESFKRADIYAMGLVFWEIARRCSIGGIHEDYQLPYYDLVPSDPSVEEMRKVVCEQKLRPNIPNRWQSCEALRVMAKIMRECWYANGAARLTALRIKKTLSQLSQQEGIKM
Procedure, shortened: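 Read-out was LANCE Ultra TR-FRET with a europium anti-phospho-Topo IIα Thr1342 antibody after EDTA quench. Kinase reaction ran 60 min at 37 °C with ATP added from a 125 μM 5× stock, after 60 min compound–enzyme equilibration at room temperature. Values are pKi from Cheng-Prusoff conversion of fitted pIC50.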

Structure (SMILES) | pKi [2] | IC50 [1] [nM]
Cc1cccc(-c2nccc(Nc3ccnc(Nc4ccc(C(=O)OC[C@@H]5CCCNC5)nc4)n3)n2)n1 [Compound 625, [(3R)-3-piperidyl]methyl 5-[[4-[[2-(6-methyl-2-pyridyl)pyrimidin-4-yl]amino]pyrimidin-2-yl]amino]pyridine-2-carboxylate] | 9.50 to 10.40 | 25.1 to 158
Cc1cccc(-c2nccc(Nc3ccnc(Nc4nc(C5=CCNC5)cs4)n3)n2)n1 [Compound 626, N2-[4-(2,5-dihydro-1H-pyrrol-3-yl)thiazol-2-yl]-N4-[2-(6-methyl-2-pyridyl)pyrimidin-4-yl]pyrimidine-2,4-diamine] | 9.50 to 10.40 | 25.1 to 158
Cc1cccc(-c2nccc(Nc3ccnc(Nc4csc(C(=O)OCCN5C[C@@H](C)N[C@@H](C)C5)c4)n3)n2)n1 [Compound 627, 2-[(3S,5R)-3,5-dimethylpiperazin-1-yl]ethyl 4-[[4-[[2-(6-methyl-2-pyridyl)pyrimidin-4-yl]amino]pyrimidin-2-yl]amino]thiophene-2-carboxylate] | 9.50 to 10.40 | 25.1 to 158
Cc1cccc(-c2nccc(Nc3ccnc(Nc4ccc(C(=O)OC[C@H]5CCCCN5)nc4)n3)n2)n1 [Compound 628, [(2R)-2-piperidyl]methyl 5-[[4-[[2-(6-methyl-2-pyridyl)pyrimidin-4-yl]amino]pyrimidin-2-yl]amino]pyridine-2-carboxylate] | 9.50 to 10.40 | 25.1 to 158
Cc1cccc(-c2nccc(Nc3ccnc(Nc4nc(CN5CC(C(=O)O)C5)cs4)n3)n2)n1 [Compound 629, 1-[[2-[[4-[[2-(6-methyl-2-pyridyl)pyrimidin-4-yl]amino]pyrimidin-2-yl]amino]thiazol-4-yl]methyl]azetidine-3-carboxylic acid] | 9.50 to 10.40 | 1580 to 10000
Cc1cccc(-c2nccc(Nc3ccnc(Nc4ncc(C(=O)OC[C@@H]5CCNC5)s4)n3)n2)n1 [Compound 630, [(3R)-pyrrolidin-3-yl]methyl 2-[[4-[[2-(6-methyl-2-pyridyl)pyrimidin-4-yl]amino]pyrimidin-2-yl]amino]thiazole-5-carboxylate] | 7.50 to 8.40 | 200 to 1260
Cc1cccc(-c2nccc(Nc3ccnc(Nc4csc(C(=O)O[C@H]5C[C@@H](N)C5)c4)n3)n2)n1 [Compound 631, (3-aminocyclobutyl) 4-[[4-[[2-(6-methyl-2-pyridyl)pyrimidin-4-yl]amino]pyrimidin-2-yl]amino]thiophene-2-carboxylate] | 9.50 to 10.40 | 25.1 to 158
Cc1cccc(-c2nccc(Nc3ccnc(Nc4cc(C(=O)O[C@H]5CCNC5)ccn4)n3)n2)n1 [Compound 632, [(3S)-pyrrolidin-3-yl] 2-[[4-[[2-(6-methyl-2-pyridyl)pyrimidin-4-yl]amino]pyrimidin-2-yl]amino]pyridine-4-carboxylate] | 7.50 to 8.40 | 25.1 to 158
Cc1cccc(-c2nccc(Nc3ccnc(Nc4cc(C(=O)OC5CCNCC5)ccn4)n3)n2)n1 [Compound 633, 4-piperidyl 2-[[4-[[2-(6-methyl-2-pyridyl)pyrimidin-4-yl]amino]pyrimidin-2-yl]amino]pyridine-4-carboxylate] | 7.50 to 8.40 | 200 to 1260
Cc1cccc(-c2nccc(Nc3ccnc(Nc4ccc(C(=O)OC5CCNCC5)cn4)n3)n2)n1 [Compound 634, 4-piperidyl 6-[[4-[[2-(6-methyl-2-pyridyl)pyrimidin-4-yl]amino]pyrimidin-2-yl]amino]pyridine-3-carboxylate] | 7.50 to 8.40 | 25.1 to 158
Cc1cccc(-c2nccc(Nc3ccnc(Nc4csc(C(=O)OC[C@@H]5CCC[C@@H](N)C5)c4)n3)n2)n1 [Compound 635, [(1R,3R)-3-aminocyclohexyl]methyl 4-[[4-[[2-(6-methyl-2-pyridyl)pyrimidin-4-yl]amino]pyrimidin-2-yl]amino]thiophene-2-carboxylate] | 9.50 to 10.40 | 25.1 to 158
Cc1cccc(-c2nccc(Nc3ccnc(Nc4cc(C(=O)O)ccn4)n3)n2)n1 [Compound 636, 2-[[4-[[2-(6-methyl-2-pyridyl)pyrimidin-4-yl]amino]pyrimidin-2-yl]amino]pyridine-4-carboxylic acid] | 7.50 to 8.40 | 1580 to 10000
Cc1cccc(-c2nccc(Nc3ccnc(Nc4csc(C(=O)OC[C@@H]5CCCN5)c4)n3)n2)n1 [Compound 637, [(2S)-pyrrolidin-2-yl]methyl 4-[[4-[[2-(6-methyl-2-pyridyl)pyrimidin-4-yl]amino]pyrimidin-2-yl]amino]thiophene-2-carboxylate] | 9.50 to 10.40 | 25.1 to 158

The next lines start with results.

pKi [2] | Structure (SMILES) | IC50 [1] [nM]
9.50 to 10.40 | Cc1cccc(-c2nccc(Nc3ccnc(Nc4csc(C(=O)O[C@H]5C[C@H](N)C5)c4)n3)n2)n1 [Compound 638, (3-aminocyclobutyl) 4-[[4-[[2-(6-methyl-2-pyridyl)pyrimidin-4-yl]amino]pyrimidin-2-yl]amino]thiophene-2-carboxylate] | 25.1 to 158
9.50 to 10.40 | Cc1cccc(-c2nccc(Nc3ccnc(Nc4csc(C(=O)OC[C@@H]5CCCCN5)c4)n3)n2)n1 [Compound 639, [(2S)-2-piperidyl]methyl 4-[[4-[[2-(6-methyl-2-pyridyl)pyrimidin-4-yl]amino]pyrimidin-2-yl]amino]thiophene-2-carboxylate] | 25.1 to 158
8.50 to 9.40 | Cc1cccc(-c2nccc(Nc3ccnc(Nc4cncc(C(=O)OC[C@H]5CCCCN5)c4)n3)n2)n1 [Compound 641, [(2R)-2-piperidyl]methyl 5-[[4-[[2-(6-methyl-2-pyridyl)pyrimidin-4-yl]amino]pyrimidin-2-yl]amino]pyridine-3-carboxylate] | 25.1 to 158
9.50 to 10.40 | Cc1cccc(-c2nccc(Nc3ccnc(Nc4cncc(CN5CC(C(=O)O[C@@H]6CCNC6)C5)c4)n3)n2)n1 [Compound 642, [(3R)-pyrrolidin-3-yl] 1-[[5-[[4-[[2-(6-methyl-2-pyridyl)pyrimidin-4-yl]amino]pyrimidin-2-yl]amino]-3-pyridyl]methyl]azetidine-3-carboxylate] | 25.1 to 158
7.50 to 8.40 | Cc1cccc(-c2cccc(Nc3ccnc(Nc4ccc(N5CCOCC5)cc4)n3)n2)n1 [Compound 1000, N4-[6-(6-methyl-2-pyridyl)-2-pyridyl]-N2-(4-morpholinophenyl)pyrimidine-2,4-diamine] | 25.1 to 158
8.50 to 9.40 | Cc1cccc(-c2cc(Nc3ccnc(Nc4ccc(N5CCOCC5)cc4)n3)c3cc[nH]c3n2)n1 [Compound 1001, N4-[6-(6-methyl-2-pyridyl)-1H-pyrrolo[2,3-b]pyridin-4-yl]-N2-(4-morpholinophenyl)pyrimidine-2,4-diamine] | 200 to 1260
7.50 to 8.40 | Cc1cccc(-c2nc(Nc3ccnc(Nc4ccc(N5CCOCC5)cc4)n3)ccc2C#N)n1 [Compound 1003, 2-(6-methyl-2-pyridyl)-6-[[2-(4-morpholinoanilino)pyrimidin-4-yl]amino]pyridine-3-carbonitrile] | 200 to 1260
8.50 to 9.40 | CCNC(=O)Cc1cc(Nc2ccnc(Nc3ccc(N4CCNCC4)cc3)n2)nc(-c2cccc(C)n2)n1 [Compound 1006, N-ethyl-2-[2-(6-methyl-2-pyridyl)-6-[[2-(4-piperazin-1-ylanilino)pyrimidin-4-yl]amino]pyrimidin-4-yl] acetamide] | 200 to 1260
8.50 to 9.40 | Cc1cccc(-c2nc(CC(=O)NCC(C)C)cc(Nc3ccnc(Nc4ccc(N5CCNCC5)cc4)n3)n2)n1 [Compound 1009, N-isobutyl-2-[2-(6-methyl-2-pyridyl)-6-[[2-(4-piperazin-1-ylanilino)pyrimidin-4-yl]amino]pyrimidin-4-yl] acetamide] | 200 to 1260
9.50 to 10.40 | COC(=O)c1cc(Nc2ccnc(Nc3ccc(N4CCN(C)CC4)cc3)n2)nc(-c2cccc(C)n2)n1 [Compound 1010, methyl 6-[[2-[4-(4-methylpiperazin-1-yl)anilino]pyrimidin-4-yl]amino]-2-(6-methyl-2-pyridyl)pyrimidine-4-carboxylate] | 200 to 1260
9.50 to 10.40 | Cc1cccc(-c2nc(Nc3ccnc(Nc4ccc(N5CCNCC5)cc4)n3)cc(-c3c[nH]nn3)n2)n1 [Compound 1012, N4-[2-(6-methyl-2-pyridyl)-6-(1H-triazol-4-yl)pyrimidin-4-yl]-N2-(4-piperazin-1-ylphenyl)pyrimidine-2,4-diamine] | 1580 to 10000
9.50 to 10.40 | Fc1ccc(Cl)cc1-c1ncc(C2CC2)c(Nc2ccnc(Nc3ccc(N4CCNCC4)cc3)n2)n1 [Compound 1013, N4-[2-(5-chloro-2-fluoro-phenyl)-5-cyclopropyl-pyrimidin-4-yl]-N2-(4-piperazin-1-ylphenyl)pyrimidine-2,4-diamine] | 200 to 1260
9.50 to 10.40 | Cc1cccc(-c2nc(Nc3ccnc(Nc4ccc(N)cc4)n3)c3cccn3n2)n1 [Compound 1015, N2-(4-aminophenyl)-N4-[2-(6-methyl-2-pyridyl)pyrrolo[2,1-f][1,2,4]triazin-4-yl]pyrimidine-2,4-diamine] | 25.1 to 158
